The supplement of paper PMC10307832

How the values were obtained:
Experiment in all cases: relative viability (nuclei count vs DMSO), 5 days (fraction); higher = more cells survive
GSK126 + Dasatinib = compound: CC[C@H](C)N1C=C(C2=C(C=C(C=C21)C3=CN=C(C=C3)N4CCNCC4)C(=O)NCC5=C(C=C(NC5=O)C)C)C [GSK126] + Cc1nc(Nc2ncc(C(=O)Nc3c(C)cccc3Cl)s2)cc(N2CCN(CCO)CC2)n1 [Dasatinib] (partner 0.075 µM)
Outline: (§1)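 A single step with final 0.05% Triton X-100, 1% formaldehyde and 1 ug/ml Hoechst fixed the cells and stained nuclei 5 days after treatment. Lung cancer cell lines in 1536-well plates had been treated by pin tool the day after seeding with one drug alone or a fixed anchor-drug dose plus five library-drug doses (not always all listed) in √10 steps, and nuclei were counted on 4× images. Relative viability is the ratio of nuclei in treated wells to nuclei in vehicle wells, taken as the median of duplicate plates.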

Carboplatin + Lapatinib = compound: C1CC(C1)(C(=O)O)C(=O)O.[NH2-].[NH2-].[Pt+2] [Carboplatin] + CS(=O)(=O)CCNCc1ccc(-c2ccc3ncnc(Nc4ccc(OCc5cccc(F)c5)c(Cl)c4)c3c2)o1 [Lapatinib] (partner 2 µM)
Outline: as §1

GSK126 + Lapatinib = compound: CC[C@H](C)N1C=C(C2=C(C=C(C=C21)C3=CN=C(C=C3)N4CCNCC4)C(=O)NCC5=C(C=C(NC5=O)C)C)C [GSK126] + CS(=O)(=O)CCNCc1ccc(-c2ccc3ncnc(Nc4ccc(OCc5cccc(F)c5)c(Cl)c4)c3c2)o1 [Lapatinib] (partner 2 µM)
Outline: as §1

GSK126 + Trametinib = compound: CC[C@H](C)N1C=C(C2=C(C=C(C=C21)C3=CN=C(C=C3)N4CCNCC4)C(=O)NCC5=C(C=C(NC5=O)C)C)C [GSK126] + CC(=O)Nc1cccc(-n2c(=O)n(C3CC3)c(=O)c3c(Nc4ccc(I)cc4F)n(C)c(=O)c(C)c32)c1 [Trametinib] (partner 0.02 µM)
Outline: as §1

Cell Line | relative viability (GSK126 + Dasatinib; first compound 0.08 µM) | relative viability (GSK126 + Dasatinib; first compound 0.253 µM) | relative viability (GSK126 + Dasatinib; first compound 0.8 µM) | relative viability (GSK126 + Dasatinib; first compound 2.53 µM) | relative viability (GSK126 + Dasatinib; first compound 8 µM) | relative viability (Carboplatin + Lapatinib; first compound 0.08 µM) | relative viability (Carboplatin + Lapatinib; first compound 0.253 µM) | relative viability (Carboplatin + Lapatinib; first compound 0.8 µM) | relative viability (Carboplatin + Lapatinib; first compound 2.53 µM) | relative viability (Carboplatin + Lapatinib; first compound 8 µM) | relative viability (GSK126 + Lapatinib; first compound 0.08 µM) | relative viability (GSK126 + Lapatinib; first compound 0.253 µM) | relative viability (GSK126 + Lapatinib; first compound 0.8 µM) | relative viability (GSK126 + Lapatinib; first compound 2.53 µM) | relative viability (GSK126 + Lapatinib; first compound 8 µM) | relative viability (GSK126 + Trametinib; first compound 0.08 µM) | relative viability (GSK126 + Trametinib; first compound 0.253 µM) | relative viability (GSK126 + Trametinib; first compound 0.8 µM) | relative viability (GSK126 + Trametinib; first compound 2.53 µM) | relative viability (GSK126 + Trametinib; first compound 8 µM)
NCI-H1944 | 0.236 | 0.213 | 0.229 | 0.24 | 0.297 | 0.783 | 0.978 | 0.833 | 0.919 | 0.586 | 1.04 | 0.724 | 0.859 | 0.865 | 0.989 | 0.415 | 0.373 | 0.435 | 0.443 | 0.413
BEN | 0.3 | 0.31 | 0.295 | 0.309 | 0.325 | 0.797 | 0.87 | 0.749 | 0.654 | 0.59 | 0.818 | 0.826 | 0.756 | 0.799 | 0.811 | 1.05 | 0.736 | 1.02 | 1.26 | 0.953
CAL-12T | 0.582 | 0.515 | 0.531 | 0.512 | 0.45 | 0.754 | 0.624 | 0.749 | 0.755 | 0.639 | 0.63 | 0.674 | 0.615 | 0.809 | 0.644 | 0.407 | 0.366 | 0.311 | 0.382 | 0.348
NCI-H2170 | 0.544 | 0.533 | 0.574 | 0.612 | 0.686 | 0.273 | 0.279 | 0.269 | 0.257 | 0.262 | 0.253 | 0.266 | 0.319 | 0.288 | 0.27 | 1.05 | 0.964 | 0.893 | 0.891 | 1.03
NCI-H1792 | 0.829 | 0.607 | 0.743 | 0.608 | 0.72 | 1 | 1.02 | 0.941 | 0.817 | 0.8 | 0.973 | 0.894 | 0.868 | 0.982 | 0.943 | 0.492 | 0.397 | 0.43 | 0.405 | 0.406
NCI-H2085 | 0.248 | 0.234 | 0.285 | 0.287 | 0.217 | 0.8 | 0.897 | 0.787 | 0.748 | 0.815 | 0.922 | 0.847 | 0.78 | 0.803 | 0.78 | 0.614 | 0.658 | 0.554 | 0.569 | 0.568
EKVX | 0.523 | 0.309 | 0.543 | 0.589 | 0.508 | 0.21 | 0.2 | 0.217 | 0.191 | 0.218 | 0.226 | 0.22 | 0.211 | 0.203 | 0.221 | 0.377 | 0.446 | 0.354 | 0.362 | 0.268
